Consider two compounds from article PMC12405493, “Selective ubiquitination of drug-like small molecules by the ubiquitin ligase HUWE1” (Nature Communications, 2025).

For data set [1], the target named is T1, vinylthioether-linked HUWE1^HECT-Ub complex (Homo sapiens, UniProt Q7Z6Z7).
T1 construct: The preparation of the vinylthioether-linked HUWE1^HECT-Ub complex was also previously described; made in house; host or cells: bacteria (components)
The data set is described as follows: Differential scanning fluorimetry (DSF) with HUWE1^HECT~Ub proxy. Type of data set: binding. The note with it: 10 μM protein. The protocol: DSF was performed in 25 mM HEPES (pH 7.5), 100 mM NaCl, 1 mM TCEP and 0.4% (v/v) DMSO, using a CFX96 Touch Real-Time PCR Detection System (BioRad). 10 μM HUWE1^HECT and HUWE1^HECT-Ub, respectively, at a sample volume of 25 μL were denatured by a linear 25–95 °C gradient over 120 min in a presence of 10 x SYPRO Orange (Invitrogen). Tm-values were determined as the first derivative of the fluorescence curves, using CFX Maestro™ v.1.1 (Bio-Rad). Melting curves were plotted as normalized -d(fluorescence)/dt with Prism v.9.3.1 (GraphPad).
A general note: Differential scanning fluorimetry follows unfolding on heating by fluorescence.

For data set [2], the system named is HUWE1^HECT. Details: method as in PMID 25253726. The settings on record: in vitro; read-out: IC50 of HUWE1^HECT inhibition; cited from earlier work.
For data set [3], the target named is T2, HUWE1^HECT (Homo sapiens, UniProt Q7Z6Z7).
T2 construct: the isolated HECT domain of HUWE1 (HUWE1^HECT); made in house
T2 sequence (Q7Z6Z7 4038-4374 limits assumed): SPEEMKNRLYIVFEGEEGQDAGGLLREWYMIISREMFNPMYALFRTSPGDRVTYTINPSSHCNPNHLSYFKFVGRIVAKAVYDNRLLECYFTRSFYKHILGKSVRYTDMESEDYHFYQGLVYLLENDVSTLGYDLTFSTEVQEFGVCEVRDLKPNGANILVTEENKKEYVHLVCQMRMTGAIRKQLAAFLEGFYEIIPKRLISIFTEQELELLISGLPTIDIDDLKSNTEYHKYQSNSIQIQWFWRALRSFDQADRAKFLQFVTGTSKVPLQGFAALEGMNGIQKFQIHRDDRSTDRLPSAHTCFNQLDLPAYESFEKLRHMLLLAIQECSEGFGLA
The data set is described as follows: HDX-MS of HUWE1^HECT with inhibitors. It is filed as binding. The settings on record: 10-fold molar excess of inhibitor. The protocol:
Two experiments were performed: 50 μM HUWE1^HECT (1) or HUWE1^HECT-Ub conjugate (2) were incubated with 500 μM of BI8626 or BI8622 for 1 h on ice prior HDX-MS. Individual HDX reactions were generated with a 2-arm autosampler (LEAP Technologies) by mixing 6.5 μL sample with 58.5 μL of HDX buffer (20 mM HEPES pH 8.0, 150 mM NaCl, 5 mM DTT) prepared with 99.9% D2O, incubation at 25 °C for various times, before quenching by mixing 55 μL with an equal volume of 400 mM KH2PO4/H3PO4 (pH 2.2) and 2 M guanidine-HCl (precooled at 1 °C). Non-deuterated samples were generated analogously by 10-fold dilution with H2O-based buffer. […] For each protein state and time-point, three individual HDX reactions were measured.
Peptide identification and HDX analysis was performed with ProteinLynx Global SERVER v.3.0.1 (PLGS; Waters) and DynamX v.3.0 (Waters), as described previously. […] Only peptides with an intensity >10,000 counts, ≤ 30 residues, ≥ 2 products with ≥ 0.05 products/residue, ≤ 25 ppm mass error and retention time tolerance of 0.5 min were analysed. […] The maximal deuterium uptake of a given peptide was calculated by the number of residues minus one for the N-terminal residue and minus the number of prolines. […]

The subject of the next data set is colorectal cancer cells. Details: method as in PMID 25253726. The note with it: cited from earlier work.

The IC50 is the midpoint of a concentration-inhibition curve. As for `Cc1c(C(=O)Nc2ccc(CN)cc2)ncnc1N1CCC(C#N)(c2ccccc2)CC1` [BI8622], in data set [1], the “Interaction with HUWE1^HECT-Ub by DSF” value was “no interactions between HUWE1^HECT-Ub and the inhibitors could be detected”. For the same compound, the IC50 in the data set with HUWE1^HECT [2] was 3.1 µM. Also, at HUWE1^HECT [3], the “Binding to HUWE1^HECT by HDX-MS” value was “did not provide evidence of binding”. Also, the Cytotoxic effects entry in the data set on colorectal cancer cells is “selective cytotoxic effects”.
For the compound `NCc1cccc(CNc2ncnc3c(N4CCN(Cc5ccccc5)CC4)ncnc23)c1` [BI8626], the “Interaction with HUWE1^HECT-Ub by DSF” value in data set [1] was “no interactions between HUWE1^HECT-Ub and the inhibitors could be detected”. For the same compound, the IC50 in the data set with HUWE1^HECT [2] is 0.9 µM. Also, the “Binding to HUWE1^HECT by HDX-MS” value at HUWE1^HECT [3] is “did not provide evidence of binding”. Further, the Cytotoxic effects entry in the data set on colorectal cancer cells is given as “selective cytotoxic effects”.
